Key:
mice = experiment: 2-phenyl-1,4-benzoquinone-induced writhing test in mice; format: in vivo; conditions: phenylquinone writhing
Text: The compounds of Formula I of the present invention are also useful as analgesic agents due to their ability to alleviate pain in mammals.

serotonergic system = experiment: L-5-hydroxytryptophan potentiation in rats; format: in vivo; conditions: male Wistar rats, i.p.; for ED50: Rattus norvegicus, ip, forelimb clonus after pargyline + 5-HTP; for % Potentiation: @ 20 mg/kg, normalized relative to vehicle control
Procedure: According to the monoamine hypothesis of depression, compounds exert antidepressant activity because they are capable of enhancing central noradrenergic and/or serotonergic function (Shtee and […] 1971; Douglas 1975; Lingjaerde 1973). This procedure is used to evaluate enhanced activity of the serotonergic system. Groups of six male Wistar rats (150-200 g) are used in this test procedure. […] Thirty minutes before the 5-HTP administration, drugs are prepared and dosed using distilled water and, if insoluble, a suitable surfactant is added. Control groups receive vehicle. Drugs are routinely administered i.p. at a dosage volume of 10 ml/kg. L-5-hydroxytrpytophan (Calbiochem-Behring Corp.) is prepared at 1.0 mg/kg in distilled water and is administered i.p. in volumes proportional to 10 ml/kg. Fifteen minutes post-5-HTP treatment, each animal is observed for 10 seconds. Animal observations and 5-HTP administration are done in the presence of "white noise". In a dose range, drugs are administered in a randomized manner. […] Potentiation is expressed as normalized percent potentiation relative to vehicle control. […] An ED50 and 95% confidence limit are determined by Litchfield and Wilcoxon.

## CN1CCN(CC#CCN2C(=O)c3cccc4c3N(CC4)c3ccccc32)CC1.O=C(O)/C=C/C(=O)O [1,2-Dihydro-7-[4-(4-methyl-1-piperazinyl)-2-butynyl]benzo[b]pyrrolo[3,2,1-jk][1,4]benzodiazepin-6-one fumarate]
mice
  Inhibition at 20 mg/kg, s.c.: 44%

## CC1CCN(CC#CCN2C(=O)c3cccc4c3N(CC4)c3ccccc32)CC1 [1,2-Dihydro-7-[4-(4-methyl-1-piperidinyl)-2-butynyl]benzo[b]pyrrolo[3,2,1-jk][1,4]benzodiazepin-6-one hemifumarate]
Serotonergic system
  ED50: 25.3 mg/kg

## CN1CCN(CC#CCN2C(=O)c3cccc4c3N(CC4)c3ccc(Br)cc32)CC1.O=C(O)/C=C/C(=O)O [9-Bromo-1,2-dihydro-7-[4-(4-methyl-1-piperazinyl)-2-butynyl]benzo[b]pyrrolo[3,2,1-jk][1,4]benzodiazepin-6-one fumarate]
Serotonergic system
  % Potentiation: 50%

## CC1CCN(CC#CCN2C(=O)c3cccc4c3N(CC4)c3ccc(Br)cc32)CC1 [9-Bromo-1,2-dihydro-7-[4-(4-methyl-1-piperidinyl)-2-butynyl]benzo[b]pyrrolo[3,2,1-jk][1,4]benzodiazepin-6-one hemifumarate]
mice
  Inhibition at 20 mg/kg, s.c.: 41%

## COc1ccccc1N1CCN(CC#CCN2C(=O)c3cccc4c3N(CC4)c3ccc(Br)cc32)CC1 [9-Bromo-1,2-dihydro-7-[4-[4-(2-methoxyphenyl)-1-piperazinyl]-2-butynyl]-2-butynyl]benzo[b]pyrrolo[3,2,1-jk][1,4]benzodiazepin-6-one]
Serotonergic system
  % Potentiation: 50%

## O=C1c2cccc3c2N(CC3)c2ccc(Br)cc2N1CC#CCN1CCC(n2c(=O)[nH]c3ccccc32)CC1 [9-Bromo-1,2-dihydro-7-[4-[4-(2-oxo-1H-benzimidazol-3-yl)-1-piperidinyl-2-butynyl]benzo[b]pyrrolo[3,2,1-jk][1,4]benzodiazepin-6-one monohydrate]
mice
  Inhibition at 20 mg/kg, s.c.: 42%

## CN(C)CCC=C1c2ccccc2CCc2ccccc21 [Amitriptyline, reference compound]
Serotonergic system
  ED50: 7.1 mg/kg

## CCC(=O)O[C@](Cc1ccccc1)(c1ccccc1)[C@H](C)CN(C)C [Propoxyphene, reference compound]
mice; Mus musculus, sc, read-out: ED50 (writhing inhibition)
  ED50: 3.9 mg/kg
